These are literature values, as cited in patent US9857359B2, “Methods for determining drug efficacy using cereblon-associated proteins” (CELGENE CORPORATION, priority 2012, dated 2018).

Molecules are shown by their SMILES.

The data set deals with CRBN (Homo sapiens, UniProt Q96SW2). To be noted: in vitro; Ito et al., Science 2010; cited from earlier work.
CRBN, sequence (Q96SW2 whole entry): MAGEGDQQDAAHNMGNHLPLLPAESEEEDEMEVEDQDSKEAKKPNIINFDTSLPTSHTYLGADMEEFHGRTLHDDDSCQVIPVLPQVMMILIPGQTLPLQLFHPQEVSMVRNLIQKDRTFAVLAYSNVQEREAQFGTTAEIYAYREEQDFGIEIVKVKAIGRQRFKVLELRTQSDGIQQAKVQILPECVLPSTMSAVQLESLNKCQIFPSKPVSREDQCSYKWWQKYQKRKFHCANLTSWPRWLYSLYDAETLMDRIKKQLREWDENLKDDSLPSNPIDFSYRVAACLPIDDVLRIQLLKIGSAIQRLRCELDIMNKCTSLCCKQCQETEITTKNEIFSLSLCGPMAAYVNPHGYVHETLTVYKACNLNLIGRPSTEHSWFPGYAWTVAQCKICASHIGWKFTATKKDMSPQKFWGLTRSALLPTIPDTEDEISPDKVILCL
CRBN, sequence (Q16531 whole entry partner): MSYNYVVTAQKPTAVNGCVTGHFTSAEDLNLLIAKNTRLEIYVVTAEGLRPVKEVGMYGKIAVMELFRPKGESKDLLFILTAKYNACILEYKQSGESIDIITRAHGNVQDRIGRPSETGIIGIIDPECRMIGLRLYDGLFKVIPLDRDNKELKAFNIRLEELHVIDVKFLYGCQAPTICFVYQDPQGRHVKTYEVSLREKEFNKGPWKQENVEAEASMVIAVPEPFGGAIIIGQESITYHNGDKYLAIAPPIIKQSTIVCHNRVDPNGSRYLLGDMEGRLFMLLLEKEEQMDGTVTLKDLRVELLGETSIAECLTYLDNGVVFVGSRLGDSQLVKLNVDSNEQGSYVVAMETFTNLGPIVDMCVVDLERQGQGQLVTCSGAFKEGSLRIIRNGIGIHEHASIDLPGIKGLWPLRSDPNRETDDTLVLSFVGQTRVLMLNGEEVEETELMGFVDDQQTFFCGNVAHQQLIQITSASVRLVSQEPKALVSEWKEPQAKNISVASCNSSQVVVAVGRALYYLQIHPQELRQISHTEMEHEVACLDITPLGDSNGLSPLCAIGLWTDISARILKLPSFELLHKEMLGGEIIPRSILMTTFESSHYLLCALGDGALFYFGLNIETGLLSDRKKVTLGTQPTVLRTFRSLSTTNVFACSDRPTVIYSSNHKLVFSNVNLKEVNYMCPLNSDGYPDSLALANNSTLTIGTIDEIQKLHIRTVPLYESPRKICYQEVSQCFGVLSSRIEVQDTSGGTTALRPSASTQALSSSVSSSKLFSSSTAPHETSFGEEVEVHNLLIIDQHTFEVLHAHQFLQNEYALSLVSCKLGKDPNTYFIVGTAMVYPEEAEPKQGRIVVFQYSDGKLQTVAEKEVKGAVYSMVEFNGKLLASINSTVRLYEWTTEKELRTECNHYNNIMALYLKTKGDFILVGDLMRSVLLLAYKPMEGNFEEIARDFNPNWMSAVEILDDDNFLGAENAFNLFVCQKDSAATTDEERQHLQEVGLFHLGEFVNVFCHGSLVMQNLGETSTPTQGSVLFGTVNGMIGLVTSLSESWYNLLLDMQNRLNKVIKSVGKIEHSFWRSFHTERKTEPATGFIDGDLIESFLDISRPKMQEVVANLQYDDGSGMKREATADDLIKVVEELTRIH
CRBN, sequence (Q13619 whole entry partner): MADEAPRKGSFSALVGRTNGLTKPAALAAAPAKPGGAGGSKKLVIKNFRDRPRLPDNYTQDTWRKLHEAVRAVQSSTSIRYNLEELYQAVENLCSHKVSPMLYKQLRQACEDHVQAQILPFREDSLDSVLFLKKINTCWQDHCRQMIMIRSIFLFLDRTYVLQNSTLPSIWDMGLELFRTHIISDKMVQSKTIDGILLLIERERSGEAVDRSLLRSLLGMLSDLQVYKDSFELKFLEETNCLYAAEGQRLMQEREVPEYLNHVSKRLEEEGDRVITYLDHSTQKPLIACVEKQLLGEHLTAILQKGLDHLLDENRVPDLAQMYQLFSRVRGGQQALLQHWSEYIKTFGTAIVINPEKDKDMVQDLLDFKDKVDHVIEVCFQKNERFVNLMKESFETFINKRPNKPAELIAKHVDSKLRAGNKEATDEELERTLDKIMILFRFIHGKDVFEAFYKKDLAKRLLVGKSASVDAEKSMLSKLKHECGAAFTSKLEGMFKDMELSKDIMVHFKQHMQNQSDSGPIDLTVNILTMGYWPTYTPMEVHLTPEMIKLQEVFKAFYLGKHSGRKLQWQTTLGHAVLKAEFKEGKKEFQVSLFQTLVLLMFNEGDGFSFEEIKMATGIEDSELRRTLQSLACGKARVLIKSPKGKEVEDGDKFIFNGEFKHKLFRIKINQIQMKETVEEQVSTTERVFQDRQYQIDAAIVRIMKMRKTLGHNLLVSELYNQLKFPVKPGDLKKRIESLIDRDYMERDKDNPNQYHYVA
CRBN, sequence (P62877 whole entry partner): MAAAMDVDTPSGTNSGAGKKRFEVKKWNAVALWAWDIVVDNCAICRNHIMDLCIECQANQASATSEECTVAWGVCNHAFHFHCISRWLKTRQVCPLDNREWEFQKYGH

As for `O=C1CCC(N2C(=O)c3ccccc3C2=O)C(=O)N1` (stereo not shown) [thalidomide], the “Auto-ubiquitination of CRBN” value is “inhibit auto-ubiquitination of CRBN in vitro”.
